From ChEMBL document CHEMBL5052856, “Inhibitors of apol1 and methods of using same” (2021)

Columns and labels:
Apolipoprotein L1 = Apolipoprotein L1 (Homo sapiens, UniProt O14791); assay: Inhibition of APOL1 G1 variant in human HEK293-T-REx cells measured by Thallium assay; format: cell-based
[1] = test system: Trypanosoma brucei brucei; assay: Antitrypanosomal activity against Trypanosoma brucei brucei assessed as trypanosome lysis using recombinant APOL1 protein G1 variant and measured by Alamar blue based fluoresence assay; format: functional, organism-based

Row | SMILES | IC50 (Apolipoprotein L1) | IC50 [1]
1 | CC(O)(CO)CNC(=O)[C@H]1C[C@H](c2c(-c3ccc(F)cc3)[nH]c3c(F)cc(F)cc32)C1 (stereo partly drawn) | > 1 µM | > 1 µM
2 | NC(=O)CNCC1CC(c2c(-c3ccc(F)cc3)[nH]c3c(F)cc(F)cc23)C1 (stereo not drawn) | < 0.25 µM | < 0.25 µM
3 | O=C(NC[C@@H](O)CO)[C@H]1C[C@H](c2c(-c3ccc(F)cc3)[nH]c3c(F)cc(F)cc32)C1 | > 1 µM | > 1 µM
4 | O=C([C@H]1C[C@H](c2c(-c3ccc(F)cc3)[nH]c3c(F)cc(F)cc32)C1)N1CCOC[C@H]1CO | > 1 µM | 0.25 µM
5 | O=C(NC[C@H](O)CO)[C@H]1C[C@H](c2c(-c3ccc(F)cc3)[nH]c3c(F)cc(F)cc32)C1 | > 1 µM | 0.25 µM
6 | COC[C@@H]1CCN1C(=O)[C@H]1C[C@H](c2c(-c3ccc(F)cc3)[nH]c3c(F)cc(F)cc32)C1 | > 1 µM | < 0.25 µM
7 | O=C(NC1CNC[C@@H]1O)[C@H]1C[C@H](c2c(-c3ccc(F)cc3)[nH]c3c(F)cc(F)cc32)C1 (stereo partly drawn) | > 1 µM | 0.25 µM
8 | CC1(CO)CCN1C(=O)[C@H]1C[C@H](c2c(-c3ccc(F)cc3)[nH]c3c(F)cc(F)cc32)C1 (stereo partly drawn) | 0.00025 µM | < 0.25 µM
9 | C[C@]1(NC(=O)[C@H]2C[C@H](c3c(-c4ccc(F)cc4)[nH]c4c(F)cc(F)cc43)C2)C[C@@H](O)C1 | 0.00025 µM | 0.25 µM
10 | NC(=O)CC1CC(c2c(-c3ccc(F)cc3)[nH]c3c(F)cc(F)cc23)C1 (stereo not drawn) | < 0.25 µM | < 0.25 µM
11 | CC(C)(O)C(O)CNC(=O)[C@H]1C[C@H](c2c(-c3ccc(F)cc3)[nH]c3c(F)cc(F)cc32)C1 (stereo partly drawn) | > 1 µM | 0.25 µM
12 | NC(=O)CNC[C@H]1C[C@H](c2c(-c3ccc(F)cc3)[nH]c3c(F)cc(F)cc32)C1 | < 0.25 µM | < 0.25 µM
13 | NC(=O)[C@@H](CO)NC(=O)[C@H]1C[C@H](c2c(-c3ccc(F)cc3)[nH]c3c(F)cc(F)cc32)C1 | < 0.25 µM | < 0.25 µM
14 | O=C([C@H]1C[C@H](c2c(-c3ccc(F)cc3)[nH]c3c(F)cc(F)cc32)C1)N1CC(CO)C1 | > 1 µM | < 0.25 µM
15 | O=C1CN(C(=O)[C@H]2C[C@H](c3c(-c4ccc(F)cc4)[nH]c4c(F)cc(F)cc43)C2)CCN1 | > 1 µM | > 1 µM
16 | NC(=O)CNC[C@H]1C[C@@H](c2c(-c3ccc(F)cc3)[nH]c3c(F)cc(F)cc32)C1 | < 0.25 µM | < 0.25 µM
17 | O=C([C@H]1C[C@H](c2c(-c3ccc(F)cc3)[nH]c3c(F)cc(F)cc32)C1)N1C[C@@H](O)[C@H](O)C1 | > 1 µM | 0.25 µM
18 | NC(=O)C1CC(c2c(-c3ccc(F)cc3)[nH]c3c(F)cc(F)cc23)C1 (stereo not drawn) | 0.00025 µM | 0.25 µM
19 | O=C([C@H]1C[C@H](c2c(-c3ccc(F)cc3)[nH]c3c(F)cc(F)cc32)C1)N1CCOC[C@@H]1CO | 0.00025 µM | < 0.25 µM
20 | CS(=O)(=O)NC(=O)[C@H]1C[C@H](c2c(-c3ccc(F)cc3)[nH]c3c(F)cc(F)cc32)C1 | > 1 µM | > 1 µM
21 | O=C([C@H]1C[C@H](c2c(-c3ccc(F)cc3)[nH]c3c(F)cc(F)cc32)C1)N1CCC[C@@H](O)C1 (mixture of isomers) | 0.00025 µM | < 0.25 µM
22 | O=C([C@H]1C[C@H](c2c(-c3ccc(F)cc3)[nH]c3c(F)cc(F)cc32)C1)N1CCC[C@H](O)C1 (mixture of isomers) | > 1 µM | 0.25 µM
23 | C[C@H](CO)N(C)C(=O)[C@H]1C[C@H](c2c(-c3ccc(F)cc3)[nH]c3c(F)cc(F)cc32)C1 (mixture of isomers) | 0.00025 µM | < 0.25 µM
24 | O=C(OC1CN(C(=O)C2CC(c3c(-c4ccc(F)cc4)[nH]c4c(F)cc(F)cc34)C2)C1)C1CCOCC1 (trans isomer) | 0.00025 µM | < 0.25 µM
